Measured values published in patent US8435994B2, “Substituted [1,2,4]triazolo[4,3-alpha]quinoxalines as adenosine A2a receptor antagonists” (Merck Sharp & Dohme Corp., priority 2009, dated 2013).

Biological target: T1, Human A2a Adenosine Receptor (Homo sapiens, UniProt P29274)
T1 construct: purchased Receptor Biology, Inc., Beltsville, Md; RB-HA2a
Experiment: Human Adenosine A2a Receptor Competition Binding Assay ([3H]-SCH 58261 displacement)
Conditions: Table I; human A2a membranes, [3H]-SCH 58261 0.5 nM, Cheng-Prusoff; read-out: Activity (Ki)
Experimental: Human Adenosine A2a Receptor Competition Binding Assay Protocol
A2a: Human A2a Adenosine Receptor membranes, Catalog #RB-HA2a, Receptor Biology, Inc., Beltsville, Md. Dilute to 17 μg/100 μl in membrane dilution buffer (see below).
Membrane dilution buffer: Dulbecco's Phosphate Buffered Saline (Gibco/BRL)+ 10 mM MgCl2.
Compound Dilution Buffer: Dulbecco's Phosphate Buffered Saline (Gibco/BRL)+10 mM MgCl2 supplemented with 1.6 mg/ml methyl cellulose and 16% DMSO. Prepared fresh daily.
A2a: [3H]-SCH 58261 [7-(2-phenylethyl)-5-amino-2-(2-furyl)-pyrazolo-[4,3-e]-1,2,4-triazolo[1,5-c]pyrimidine], custom synthesis, Amersham Pharmacia Biotech, Piscataway, N.J. Stock is prepared at 1 nM in membrane dilution buffer. Final assay concentration is 0.5 nM. SCH-58261 is discussed in Zocchi et al., J Pharmacol Exp Ther. 276(2):398-404 (1996).
A2a: To determine non-specific binding, add 100 nM CGS 15923 (RBI, Natick, Mass.). Working stock is prepared at 400 nM in compound dilution buffer.
Prepare 1 mM stock solutions of compounds in 100% DMSO. Dilute in compound dilution buffer. Test at 10 concentrations ranging from 3 μM to 30 μM. Prepare working solutions at 4× final concentration in compound dilution buffer.
Perform assays in deep well 96 well plates. Total assay volume is 200 μl. Add 50 μl compound dilution buffer (total ligand binding) or 50 μl […] working solution (A2a non-specific binding) or 50 μl of drug working solution.

T1 sequence (P29274 whole entry): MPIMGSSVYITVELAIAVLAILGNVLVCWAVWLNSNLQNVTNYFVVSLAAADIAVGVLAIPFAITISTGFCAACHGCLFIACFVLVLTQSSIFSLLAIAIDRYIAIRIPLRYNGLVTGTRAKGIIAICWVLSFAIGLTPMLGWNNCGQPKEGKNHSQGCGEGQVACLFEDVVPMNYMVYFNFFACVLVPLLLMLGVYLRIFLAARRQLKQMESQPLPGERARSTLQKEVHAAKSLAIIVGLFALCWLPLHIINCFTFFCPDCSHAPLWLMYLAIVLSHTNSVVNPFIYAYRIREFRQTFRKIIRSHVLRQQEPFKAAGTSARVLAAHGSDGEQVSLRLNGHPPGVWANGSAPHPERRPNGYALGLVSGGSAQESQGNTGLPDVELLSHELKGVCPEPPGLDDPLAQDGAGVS

Ki	SMILES
0.4 nM	Nc1nc2cc(F)c(F)cc2n2c(=O)n(Cc3c(F)cccc3F)nc12 [Compound 1]
0.7 nM	Nc1nc2ccccc2n2c(=O)n(Cc3ccccc3)nc12 [Compound 2]
0.6 nM	Cc1cccc2c1nc(N)c1nn(Cc3ccccc3)c(=O)n12 [Compound 3]
0.7 nM	Nc1ccccc1Cn1nc2c(N)nc3ccccc3n2c1=O [Compound 5]
0.9 nM	Nc1nc2ccc(F)cc2n2c(=O)n(Cc3ccccc3)nc12 [Compound 6]
0.7 nM	Nc1nc2ccc(F)cc2n2c(=O)n(Cc3c(F)cccc3F)nc12 [Compound 7]
1 nM	Nc1nc2ccccc2n2c(=O)n(Cc3cccc(F)c3F)nc12 [Compound 8]
1 nM	Nc1nc2ccccc2n2c(=O)n(Cc3c(F)cccc3F)nc12 [Compound 9]
1 nM	Nc1nc2ccc(F)cc2n2c(=O)n(Cc3ccc(F)cc3)nc12 [Compound 10]
1.2 nM	Nc1nc2ccccc2n2c(=O)n(Cc3ccccc3CO)nc12 [Compound 11]
1 nM	Nc1nc2ccc(F)cc2n2c(=O)n(Cc3c(F)cc(F)cc3F)nc12 [Compound 12]
1.4 nM	Nc1nc2ccccc2n2c(=O)n(Cc3c(F)cc(F)cc3F)nc12 [Compound 13]
1.2 nM	N#Cc1ccccc1Cn1nc2c(N)nc3ccccc3n2c1=O [Compound 14]
1.4 nM	Nc1nc2cc([N+](=O)[O-])ccc2n2c(=O)n(Cc3ccccc3)nc12 [Compound 15]
1.4 nM	Nc1nc2cc(Cl)c(Cl)cc2n2c(=O)n(Cc3ccccc3)nc12 [Compound 16]
1.4 nM	Nc1nc2cc(F)c(F)cc2n2c(=O)n(Cc3ccccc3)nc12 [Compound 17]
1.9 nM	Nc1nc2ccccc2n2c(=O)n(Cc3ccc(F)cc3)nc12 [Compound 18]
1.7 nM	COC(=O)c1ccc2c(c1)nc(N)c1nn(Cc3ccccc3)c(=O)n12 [Compound 19]
1.8 nM	Nc1nc2cc(C(F)(F)F)ccc2n2c(=O)n(Cc3c(F)cccc3F)nc12 [Compound 20]
1.8 nM	Nc1nc2ccccc2n2c(=O)n(Cc3ccccc3C(F)(F)F)nc12 [Compound 21]
2.2 nM	Nc1nc2ccc(F)cc2n2c(=O)n(Cc3c(F)cccc3C(F)(F)F)nc12 [Compound 22]
2 nM	CC(C)(O)c1ccccc1Cn1nc2c(N)nc3ccccc3n2c1=O [Compound 23]
2.8 nM	Nc1nc2cc(F)c(F)cc2n2c(=O)n(Cc3c(F)cc(F)cc3F)nc12 [Compound 24]
2.6 nM	Nc1nc2cc(C=O)ccc2n2c(=O)n(Cc3ccccc3)nc12 [Compound 25]
1.9 nM	COC(=O)c1ccccc1Cn1nc2c(N)nc3ccccc3n2c1=O [Compound 26]
2.5 nM	Nc1nc2ccccc2n2c(=O)n(Cc3c(F)cccc3C(F)(F)F)nc12 [Compound 27]
2.7 nM	Nc1nc2ccc(Cl)cc2n2c(=O)n(Cc3ccccc3)nc12 [Compound 28]

Ki	SMILES
3.2 nM	Nc1nc2ccccc2n2c(=O)n(Cc3ccccc3[N+](=O)[O-])nc12 [Compound 29]
3.2 nM	Nc1nc2ccccc2n2c(=O)n(Cc3c(Cl)cccc3Cl)nc12 [Compound 30]
3 nM	CC(=O)c1ccc2c(c1)nc(N)c1nn(Cc3ccccc3)c(=O)n12 [Compound 31]
4.7 nM	N#C/N=c1\n(Cc2ccccc2)nc2c(N)nc3ccccc3n12 [Compound 32]
5.6 nM	Nc1ccc2c(c1)nc(N)c1nn(Cc3ccccc3)c(=O)n12 [Compound 33]
6 nM	N=c1n(Cc2ccccc2)nc2c(N)nc3ccccc3n12 [Compound 35]
7.1 nM	Cc1cccc2nc(N)c3nn(Cc4ccccc4)c(=O)n3c12 [Compound 36]
7.4 nM	Nc1nc2ccccc2n2c(=O)n(Cc3cc(F)cc(F)c3)nc12 [Compound 37]
7.4 nM	CC(=O)Nc1ccccc1Cn1nc2c(N)nc3ccccc3n2c1=O [Compound 38]
8.2 nM	CN(C)/C=N\c1ccccc1Cn1nc2c(N)nc3ccccc3n2c1=O [Compound 39]
8.6 nM	Nc1nc2cc(CO)ccc2n2c(=O)n(Cc3ccccc3)nc12 [Compound 40]
8.3 nM	CS(=O)(=O)c1ccccc1Cn1nc2c(N)nc3ccccc3n2c1=O [Compound 41]
10.2 nM	Nc1nc2ccc(C(F)(F)F)cc2n2c(=O)n(Cc3c(F)cccc3F)nc12 [Compound 42]
12.1 nM	COc1ccc2nc(N)c3nn(Cc4ccccc4)c(=O)n3c2c1 [Compound 43]
14 nM	COc1cccc(OC)c1Cn1nc2c(N)nc3ccccc3n2c1=O [Compound 44]
29.2 nM	Nc1nc2ccccc2n2c(=O)n(CCc3ccccc3)nc12 [Compound 45]
28.9 nM	CCCCNc1nc2ccc(F)cc2n2c(=O)n(Cc3ccccc3)nc12 [Compound 46]
32.3 nM	Nc1nc2ccccc2n2c(=O)n(CC3CC3)nc12 [Compound 47]
28.9 nM	CN(C)C(=O)c1ccccc1Cn1nc2c(N)nc3ccccc3n2c1=O [Compound 48]
38.4 nM	Nc1nc2cc(CO)ccc2n2c(=O)n(Cc3ccccc3F)nc12 [Compound 49]
46.3 nM	Nc1nc2cccnc2n2c(=O)n(Cc3ccccc3)nc12 [Compound 50]
51.5 nM	COc1ccc2nc(N)c3nn(Cc4ccccc4C(F)(F)F)c(=O)n3c2c1 [Compound 51]
54.9 nM	CC(O)c1ccc2c(c1)nc(N)c1nn(Cc3ccccc3)c(=O)n12 (stereo not drawn) [Compound 52]
60 nM	Nc1nc2ccc(CO)cc2n2c(=O)n(Cc3ccccc3)nc12 [Compound 53]
66.4 nM	Nc1nc2ccccc2n2c(=O)n(Cc3ccccc3C(=O)N3CCOCC3)nc12 [Compound 54]
70.8 nM	COC(=O)c1ccc2nc(N)c3nn(Cc4ccccc4)c(=O)n3c2c1 [Compound 55]
91.1 nM	CC(c1ccccc1)n1nc2c(N)nc3ccccc3n2c1=O (stereo not drawn) [Compound 56]

Same assay, conditions: Table II; human A2a membranes, [3H]-SCH 58261 0.5 nM, Cheng-Prusoff; read-out: Activity (Ki in nM)

Ki	SMILES
4.1 nM	Nc1nc2ccccc2n2cc(Cc3ccccc3)nc12 [Compound 57]
57 nM	Nc1nc2ccccc2n2cc(-c3ccccc3)nc12 [Compound 58]
42 nM	Nc1nc2ccccc2n2cc(C(=O)c3ccccc3)nc12 [Compound 59]
29 nM	Nc1nc2ccccc2n2cc(C(O)c3ccccc3)nc12 (stereo not drawn) [Compound 60]

Same assay, conditions: assay of Example 25; read-out: Ki value for the adenosine A2a receptor

Ki	SMILES
0.7 nM	Nc1nc2ccccc2n2nc(Cc3ccccc3)nc12 [Compound 61]
0.7 nM	Nc1nc2ccccc2c2nc(Cc3ccccc3)cn12 [Compound 62]
